The conditions of data set [1]: reported in WO2010/083414; cited from earlier work.
A short description of data set [2]: Karl Fischer coulometric titration (water content). Format: physicochemical. How it is done: Ca. 10-20 mg of solid material was accurately weighed into a container and the weight noted. The solid was then manually introduced into the titration cell of a Mettler Toledo C30 Compact Titrator. The titration was initiated once the sample had fully dissolved in the cell. The vial was back-weighed after the addition of the solid and the weight of the added solid entered into the instrument. The water content was calculated automatically by the instrument as a percentage and the data printed.

Data set [3] in a line: Aqueous solubility measurement. Format: physicochemical. The settings on record: thermodynamic from solid; deionized water, shaking ca. 24 h, ambient temperature (ca. 22° C.). The method, then: Each salt was individually slurried in deionized water and subjected to shaking for ca. 24 h at ambient temperature (ca. 22° C.). The resulting saturated solutions were filtered and analyzed by HPLC analysis. XRPD analysis was carried out on any solid retained after the solubility experiment.

Data set [4] is described as follows: Dynamic vapour sorption (DVS), water absorption. The class given is physicochemical. The conditions noted are these: between 20% and 70% RH.
Protocol: Approximately 10-20 mg of sample was placed into a vapour sorption balance pan and loaded into a DVS-1 dynamic vapour sorption balance by Surface Measurement Systems. The sample was subjected to a ramping profile from 20-90% relative humidity (RH) at 10% increments, maintaining the sample at each step until a stable weight had been achieved (99.5% step completion). After completion of the sorption cycle, the sample was dried using the same procedure, but all the way down to 0% RH and finally taken back to the starting point of 20% RH. The weight change during the sorption/desorption cycles were plotted, allowing for the hygroscopic nature of the sample to be determined.
For data set [5] the following is noted: humidity (75%) and high temperature (40° C.); reported in WO2010/083414; cited from earlier work.

Results on 4 compounds are retold here after patent US10053427B2, “Crystalline forms of cabozantinib phosphate and cabozantinib hydrochloride” (priority 2015, dated 2018).

Each structure is given as a SMILES string. Where a name gives a salt, the structure may show the parent alone.

With `COc1cc2nccc(Oc3ccc(NC(=O)C4(C(=O)Nc5ccc(F)cc5)CC4)cc3)c2cc1OC` [(L)-malate salt], in data set [1], the Hygroscopicity entry is “non-hygroscopic”.
What is called solubility is the dissolved amount per volume that the medium holds. Lower therefore signals a poorly soluble substance. As for `COc1cc2nccc(Oc3ccc(NC(=O)C4(C(=O)Nc5ccc(F)cc5)CC4)cc3)c2cc1OC.O=P(O)(O)O` [Cabozantinib phosphate Form A, N-{4-[(6,7-dimethoxy-4-quinolinyl)oxy]phenyl}-N′-(4-fluorophenyl)-1,1-cyclopropanedicarboxamide phosphate], the “KF analysis water content” value in data set [2] is 0.5 weight-%. In data set [3], this compound showed a solubility at 24 h of 90 µg/mL. The Water absorption in data set [4] (DVS) was 1%.
Regarding `COc1cc2nccc(Oc3ccc(NC(=O)C4(C(=O)Nc5ccc(F)cc5)CC4)cc3)c2cc1OC.Cl` [Cabozantinib hydrochloride Form A-1, N-{4-[(6,7-dimethoxy-4-quinolinyl)oxy]phenyl}-N′-(4-fluorophenyl)-1,1-cyclopropanedicarboxamide hydrochloride], in data set [3], the solubility at 24 h is 210 µg/mL. Also, in data set [4] (DVS), the “Water absorption (DVS)” value is listed as 0.07 weight-%. For the same compound, the “Hygroscopicity (DVS)” value in data set [4] is “non hygroscopic”.
Regarding `COc1cc2nccc(Oc3ccc(NC(=O)C4(C(=O)Nc5ccc(F)cc5)CC4)cc3)c2cc1OC` [cabozantinib hydrochloride salt], the “Physical stability (hydrate formation / phase change)” value in data set [5] is “Possible hydrate formation and a phase change”.
